Test results: ChEMBL document CHEMBL4028817, “Indole-TEMPO conjugates alleviate ischemia-reperfusion injury via attenuation of oxidative stress and preservation of mitochondrial function” (Bioorg Med Chem, 2017)
Activity calls are given as the source filed them. No cut-off for these calls is given here.

Key:
Mus musculus [1] = assay: Toxicity in mouse assessed as tail bleeding time at 0.50 mmol/kg, po administered 60 mins prior to tail transection measured every 30 secs (reference value: 120.4 +/- 7.9 sec); assay type: organism-based; conditions: in vivo
Mus musculus [2] = assay: Anti-inflammatory activity in ICR mouse assessed as inhibition of xylene induced ear edema at 0.10 mmol/kg pretreated orally for 30 mins followed by xylene challenge measured after 2 hrs relative to control; assay type: functional; conditions: po
Mus musculus [3] = assay: Anti-inflammatory activity in xylene induced ICR mouse ear edema model assessed as edema weight at 0.10 mmol/kg, po pretreated 30 mins followed by xylene challenge measured after 2 hrs (reference value: 4.07 +/- 0.51 mg); assay type: functional
Mus musculus [4] = assay: Toxicity in mouse assessed as tail bleeding time at 0.50 mmol/kg, po administered 30 mins prior to tail transection measured every 30 secs (reference value: 120.5 +/- 7.9 sec); assay type: organism-based; conditions: in vivo
Mus musculus [5] = assay: Toxicity in mouse assessed as tail bleeding time at 0.50 mmol/kg, po administered 90 mins prior to tail transection measured every 30 secs (reference value: 119.3 +/- 7.7 sec); assay type: organism-based; conditions: in vivo
Mus musculus [6] = assay: Toxicity in mouse assessed as tail bleeding time at 0.50 mmol/kg, po administered 45 mins prior to tail transection measured every 30 secs (reference value: 119.8 +/- 8.4 sec); assay type: organism-based; conditions: in vivo
Rattus norvegicus [7] = assay: Protection against ischemia/reperfusion-induced Wistar rat intestinal injury model assessed as reduction in lipid peroxidation by measuring lipid peroxide levels at 30 mg/kg administered as bolus dose pretreated for 5 mins followed by 12 hrs reperfusion and subsequent compound addition at 10 mg/kg administered at 1 hr interval during reperfusion period measured at 1.5 to 12 hrs post reperfusion by spectrophotometric method; assay type: functional, organism-based
Rattus norvegicus [8] = assay: (§1) Protection against ischemia/reperfusion-induced Wistar rat intestinal injury model assessed as effect on TNFalpha levels at 30 mg/kg administered as bolus dose pretreated for 5 mins followed by 12 hrs reperfusion and subsequent compound addition at 10 mg/kg administered at 1 hr interval during reperfusion period by ELISA (reference value: 62.9 +/- 8.7 pg/ml); assay type: functional
HUVEC [9] = assay: Protection against simulated ischemia/reperfusion injury-induced cell death in HUVEC assessed as increase in cell viability at 30 ug/ml treated for 12 hrs under normoxic condition prior to simulated ischemia for 2 hrs followed by compound washout measured 3 hrs post reperfusion; assay type: functional, cell-based; conditions: Homo sapiens
Mus musculus [10] = assay: Anti-inflammatory activity in ICR mouse assessed as inhibition of xylene induced ear edema pretreated orally for 30 mins followed by xylene challenge measured after 2 hrs; assay type: functional
Mus musculus [11] = assay: Anti-inflammatory activity in ICR mouse assessed as inhibition of xylene induced ear edema at 0.02 mmol/kg, po pretreated for 30 mins followed by xylene challenge measured after 2 hrs; assay type: functional, organism-based
HUVEC [12] = assay: (§2) Protection against simulated ischemia/reperfusion injury induced mitochondrial oxidative damage in HUVEC assessed as increase in tubular mitochondrial cells at 30 ug/ml pretreated for 12 hrs followed by compound washout and subsequent ischemia simulation for 2 hrs in presence of compound prior to 3 hrs reperfusion under drug free medium by MitoProbe based confocal microscopic analysis; assay type: functional, cell-based; conditions: Homo sapiens
HUVEC [13] = assay: Protection against simulated ischemia and reperfusion injury induced mitochondrial oxidative damage in HUVEC assessed as reduction in cytochrome c release at 30 ug/ml treated for 12 hrs under normoxic condition prior to simulated ischemia for 2 hrs followed by compound washout measured 3 hrs post reperfusion by MitoProbe based immuno-fluorescence assay (reference value: 71.2 +/- 4.5%); assay type: functional, Homo sapiens; design: scale not given: the % may be the effect or the level left
HUVEC [14] = assay: as §2, with “decrease” for “increase”, “in” for “in tubular”, “reactive oxygen species level” for “cells”; assay type: functional, cell-based; conditions: Homo sapiens
Rattus norvegicus [15] = assay: as §1, with “well-preserved glandular architecture” for “effect on TNFalpha levels”, “hematoxylin-eosin/trichrome/NADH-diaphorase staining based histopathological analysis” for “ELISA (reference value: 62.9 +/- 8.7 pg/ml)”; assay type: functional, organism-based
Rattus norvegicus [16] = assay: Protection against ischemia/reperfusion induced Wistar rat intestinal injury model assessed as reduction in denudation of villous tips at 30 mg/kg administered as bolus dose pretreated for 5 mins followed by 12 hrs reperfusion and subsequent compound treatment at 10 mg/kg administered at 1 hr interval during reperfusion period by hematoxylin-eosin/trichrome/NADH-diaphorase staining based histopathological analysis; assay type: functional, organism-based

SMILES	Time (Mus musculus [1]) [s]	inhibition in vivo at 100 µmol/kg (Mus musculus [2]) [%]	Activity (Mus musculus [3]) [mg]	Time (Mus musculus [4]) [s]	Time (Mus musculus [5]) [s]	Time (Mus musculus [6]) [s]	Activity (Rattus norvegicus [7])	Activity (Rattus norvegicus [8]) [pg/mL]	Activity (HUVEC [9])	inhibition (Mus musculus [10])	inhibition (Mus musculus [11])	Activity (HUVEC [12])	Activity (HUVEC [13]) [%]	Activity (HUVEC [14])	Activity (Rattus norvegicus [15])	Activity (Rattus norvegicus [16])
CC1(C)CC(n2cc(CNC(=O)[C@H]3CCCN3C(=O)[C@@H]3Cc4c([nH]c5ccccc45)CN3C(=O)[C@@H]3Cc4c([nH]c5ccccc45)CN3)nn2)CC(C)(C)N1[O]	121.4	43.2	2.31	119.9	119.7	119.5	–	–	–	–	–	–	–	–	–	–
CC1(C)CC(O)CC(C)(C)N1[O] [TEMPOL]	–	–	–	–	–	–	Active	25.2	–	–	–	–	–	–	–	–
CC1(C)CC(n2cc(CNC(=O)[C@@H](Cc3ccc(O)cc3)NC(=O)[C@@H]3Cc4c([nH]c5ccccc45)CN3C(=O)[C@@H]3Cc4c([nH]c5ccccc45)CN3)nn2)CC(C)(C)N1[O]	117.5	60	1.63	117.2	118.6	118	–	–	Active	Dose-dependent effect	–	–	–	–	–	–
CC1(C)CC(n2cc(CNC(=O)[C@@H](Cc3ccccc3)NC(=O)[C@@H]3Cc4c([nH]c5ccccc45)CN3C(=O)[C@@H]3Cc4c([nH]c5ccccc45)CN3)nn2)CC(C)(C)N1[O]	117.6	45.9	2.2	119.4	119	119.1	–	–	–	–	–	–	–	–	–	–
CC[C@@H](C)[C@@H](NC(=O)[C@@H]1Cc2c([nH]c3ccccc23)CN1C(=O)[C@@H]1Cc2c([nH]c3ccccc23)CN1)C(=O)NCc1cn(C2CC(C)(C)N([O])C(C)(C)C2)nn1	116.1	44.7	2.25	119.7	121.7	117.5	–	–	–	–	–	–	–	–	–	–
CC1(C)CC(n2cc(CNC(=O)[C@@H](CO)NC(=O)[C@@H]3Cc4c([nH]c5ccccc45)CN3C(=O)[C@@H]3Cc4c([nH]c5ccccc45)CN3)nn2)CC(C)(C)N1[O]	122.5	40.5	2.42	121.1	118.6	119.7	–	–	–	–	–	–	–	–	–	–
C[C@@H](NC(=O)[C@@H]1Cc2c([nH]c3ccccc23)CN1C(=O)[C@@H]1Cc2c([nH]c3ccccc23)CN1)C(=O)NCc1cn(C2CC(C)(C)N([O])C(C)(C)C2)nn1	117.7	32.9	2.73	119.6	119.8	115.3	–	–	–	–	–	–	–	–	–	–
CC1(C)CC(n2cc(CNC(=O)C[C@@H](NC(=O)[C@@H]3Cc4c([nH]c5ccccc45)CN3C(=O)[C@@H]3Cc4c([nH]c5ccccc45)CN3)C(=O)NCc3cn(C4CC(C)(C)N([O])C(C)(C)C4)nn3)nn2)CC(C)(C)N1[O]	119.3	76.7	0.95	116.3	120.5	118.2	Active	21.7	Active	Dose-dependent effect	Active	Active	29.8	Active	Active	Active
CC1(C)CC(n2cc(CNC(=O)[C@@H](Cc3c[nH]c4ccccc34)NC(=O)[C@@H]3Cc4c([nH]c5ccccc45)CN3C(=O)[C@@H]3Cc4c([nH]c5ccccc45)CN3)nn2)CC(C)(C)N1[O]	121.8	50.4	2.02	119.4	117.3	120.3	–	–	–	–	–	–	–	–	–	–
CC1(C)CC(n2cc(CNC(=O)[C@@H](Cc3c[nH]cn3)NC(=O)[C@@H]3Cc4c([nH]c5ccccc45)CN3C(=O)[C@@H]3Cc4c([nH]c5ccccc45)CN3)nn2)CC(C)(C)N1[O]	119.5	48.6	2.09	119	118	120.5	–	–	–	–	–	–	–	–	–	–
CC1(C)CC(n2cc(CNC(=O)CNC(=O)[C@@H]3Cc4c([nH]c5ccccc45)CN3C(=O)[C@@H]3Cc4c([nH]c5ccccc45)CN3)nn2)CC(C)(C)N1[O]	116.4	34.7	2.65	117.7	115.8	114.5	–	–	–	–	–	–	–	–	–	–
CSCC[C@@H](NC(=O)[C@@H]1Cc2c([nH]c3ccccc23)CN1C(=O)[C@@H]1Cc2c([nH]c3ccccc23)CN1)C(=O)NCc1cn(C2CC(C)(C)N([O])C(C)(C)C2)nn1	119.6	43.5	2.3	119.3	117.9	118.4	–	–	–	–	–	–	–	–	–	–
CC1(C)CC(n2cc(CNC(=O)[C@@H](CCC(N)=O)NC(=O)[C@@H]3Cc4c([nH]c5ccccc45)CN3C(=O)[C@@H]3Cc4c([nH]c5ccccc45)CN3)nn2)CC(C)(C)N1[O]	120.6	47.7	2.13	117.4	119.3	119.6	–	–	–	–	–	–	–	–	–	–
CC1(C)CC(n2cc(CNC(=O)[C@@H](CC(N)=O)NC(=O)[C@@H]3Cc4c([nH]c5ccccc45)CN3C(=O)[C@@H]3Cc4c([nH]c5ccccc45)CN3)nn2)CC(C)(C)N1[O]	119.5	56.3	1.78	119.7	119.2	118.4	–	–	Active	Dose-dependent effect	–	–	–	–	–	–
C[C@@H](O)[C@@H](NC(=O)[C@@H]1Cc2c([nH]c3ccccc23)CN1C(=O)[C@@H]1Cc2c([nH]c3ccccc23)CN1)C(=O)NCc1cn(C2CC(C)(C)N([O])C(C)(C)C2)nn1	118.5	47.2	2.15	116.9	117.4	117.3	–	–	–	–	–	–	–	–	–	–
CC1(C)CC(n2cc(CNC(=O)[C@@H](CCCNC(=N)N([N+](=O)[O-])[N+](=O)[O-])NC(=O)[C@@H]3Cc4c([nH]c5ccccc45)CN3C(=O)[C@@H]3Cc4c([nH]c5ccccc45)CN3)nn2)CC(C)(C)N1[O]	119.8	63.1	1.5	121.8	119.7	120.2	–	–	Active	Dose-dependent effect	–	–	–	–	–	–
CC(C)C[C@@H](NC(=O)[C@@H]1Cc2c([nH]c3ccccc23)CN1C(=O)[C@@H]1Cc2c([nH]c3ccccc23)CN1)C(=O)NCc1cn(C2CC(C)(C)N([O])C(C)(C)C2)nn1	119.8	47	2.16	121	119.1	120.7	–	–	–	–	–	–	–	–	–	–
CC1(C)CC(n2cc(CNC(=O)[C@@H](CCCCN)NC(=O)[C@@H]3Cc4c([nH]c5ccccc45)CN3C(=O)[C@@H]3Cc4c([nH]c5ccccc45)CN3)nn2)CC(C)(C)N1[O]	120.5	57	1.75	121.4	118.5	119.8	–	–	Active	Dose-dependent effect	–	–	–	–	–	–
CC(C)[C@@H](NC(=O)[C@@H]1Cc2c([nH]c3ccccc23)CN1C(=O)[C@@H]1Cc2c([nH]c3ccccc23)CN1)C(=O)NCc1cn(C2CC(C)(C)N([O])C(C)(C)C2)nn1	120.4	36.6	2.58	116.4	118.7	119.3	–	–	–	–	–	–	–	–	–	–
